In US12084459B2, “2-(4-{1-[6-(4-isopropyl-phenyl)-imidazo[2,1-b][1,3,4]thiadiazol-2-yl]-piperidin-4-ylmethyl}-piperazin-1-yl)-ethanol and use thereof” (Urifer Ltd., priority 2020, dated 2024):

Legend:
[1] = tested on: metastatic pancreatic ductal adenocarcinoma Su.86.86 cancer cells; assay: viability / killing of Su.86.86 cells; type: cell-based; conditions: E266 versus E260; compound (I) as tartarate salt in 0.5% Tween-80; FIG. 4
Procedure: The compound (I), as tartarate salt was dissolved in 0.5% Tween-80 to affect the viability of several cell lines as follows.
The effect of the compound (I) (E266) on the growth profile of cancer cells which express Fer was tested. The cells that were tested were: the metastatic colon cancer cell line—SW620, the metastatic pancreatic ductal-adenocarcinoma SU.86.86 cancer cell-line—SU.86.86, the metastatic Triple Negative breast cancer cell line—MDA-MB-231, and the metastatic prostate cancer cell-line—PC3. The effect of the compound (I) (E266) on FS11 cells, a non malignant fibroblastic cell line, was also studied.

H358 derived xenografts = H358 derived xenografts in Nude mice; type: in vivo; conditions: 25 mg/kg daily intraperitoneal in 1% Tween 80, H358 xenografts, FIG. 7
Excerpt: In vivo activity of the E266 (compound (I) of the present application) compared to that of the E260 (EP 2401283) in H358 derived xenografts in immune-compromised (Nude) mice.
In order to compare the relative efficacy of E266 and E260 in inhibiting the development and progression of malignant tumors in-vivo, the activity in xenograft model in mice was examined for both compounds. H358 derived xenografts in immune-compromised were elicited in (Nude) mice. The H358 cells, which are metastatic bronchioloalveolar carcinoma (BAC)-non-small cell lung cancer (NSCLC) cells, were subcutaneously injected to the back of the nude mice. When the developing xenografts reached 100 mm^3 size, the inflicted animals were divided into three groups, 10 mice in each group. One group received daily intraperitoneal injection of the solvent 1% Tween 80. This solvent/emulsifier is biocompatible and is approved for pharmaceutical applications in humans. The second group received daily intraperitoneal injection of 25 mg/kg E260 dissolved in 1% Tween 80, and the third group got daily intraperitoneal injection of 25 mg/kg, E266 dissolved in the 1% Tween 80, solvent. The progression of the elicited xenografts was monitored by measuring twice a week the volumes of the developing tumors.

CC(C)c1ccc(-c2cn3nc(N4CCC(CN5CCN(CCO)CC5)CC4)sc3n2)cc1 [Compound E266, 2-(4-{1-[6-(4-isopropyl-phenyl)-imidazo[2,1-b][1,3,4]thiadiazol-2-yl]-piperidin-4-ylmethyl}-piperazin-1-yl)-ethanol]
killing metastatic pancreatic ductal adenocarcinoma Su.86.86 cancer cells [1]: comparable activity | progression of the developing tumors (xenograft volume) (H358 derived xenografts): managed to halt the progression of the developing tumors
